Assay results taken from US20100216751A1 (priority 2007, published 2010).
Where “and” joins values, the source holds several entries; their conditions need not be identical. Equal entries are not always repeated.

Assay: Pharmacokinetic evaluation of liquid bevirimat dosage forms, oral gavage, male Cynomolgus monkeys
Method: Six male Cynomolgus monkeys having an initial body weight of about 3.5 to about 4.5 kg are allowed 7 days to acclimate to their individual housing units. Monkeys are supplied with water and a commercial diet ad libitum prior to the study initiation. Food is withheld from the monkeys for a minimum of twelve hours before the study and during the study until four hours postdose when food is returned. Water is supplied ad libitum.
Test formulations are administered to the monkeys at time 0 on appropriate days. Test formulations will be dosed orally via oral gavage or intravenously.
Samples are drawn at the frequencies indicated below. Each blood sample (0.5 mL) is collected from the monkey's saphenous vein via a butterfly catheter and placed into a chilled polypropylene tube containing sodium heparin as the anticoagulant. Blood samples are centrifuged at a temperature of 4° C. at a speed of 3,000 rpm for 15 minutes. All samples are maintained chilled throughout processing. Plasma is collected after centrifugation, pipetted into a 2-mL polypropylene microtube, and frozen on dry-ice pending analytical evaluation.

[1] = oral, 50 mg/monkey, PG/glycerin/Vitamin ETPGS/Tween80/Plasdone C15 formulation, individual monkey
[2] = oral, 50 mg/monkey, PG/glycerin/Vitamin ETPGS/ethanol formulation, individual monkey
[3] = oral, 200 mg/monkey, PG/glycerin/Vitamin ETPGS/ethanol formulation, individual monkey

## C=C(C)[C@@H]1CC[C@]2(C(=O)O)CC[C@]3(C)[C@H](CC[C@@H]4[C@@]5(C)CC[C@H](OC(=O)CC(C)(C)C(=O)O)C(C)(C)[C@@H]5CC[C@]43C)[C@@H]12 [Bevirimat, 3-O-(3′,3′-dimethylsuccinyl)betulinic acid]
male, cynomolgus monkey, in vivo, po, 200 mg/monkey, Plasma Concentration, PG/glycerin/Vitamin ETPGS/ethanol formulation, 6.0 hr, individual monkey
  concentration at 6 hr: 79.4 µg/mL
male, cynomolgus monkey, in vivo, po, 200 mg/monkey, Plasma Concentration, PG/glycerin/Vitamin ETPGS/ethanol formulation, 8.0 hr, AVG
  concentration at 8 hr: 51.3 µg/mL
male, cynomolgus monkey, in vivo, po, 200 mg/monkey, Plasma Concentration, PG/glycerin/Vitamin ETPGS/ethanol formulation, 8.0 hr, individual monkey
  concentration at 8 hr: 53.4 µg/mL
male, cynomolgus monkey, in vivo, po, 200 mg/monkey, Plasma Concentration, PG/glycerin/Vitamin ETPGS/ethanol formulation, 12 hr, AVG
  concentration at 12 hr: 19600 ng/mL
male, cynomolgus monkey, in vivo, po, 200 mg/monkey, Plasma Concentration, PG/glycerin/Vitamin ETPGS/ethanol formulation, 12 hr, individual monkey
  concentration at 12 hr: 15600 ng/mL
male, cynomolgus monkey, in vivo, po, 200 mg/monkey, Plasma Concentration, PG/glycerin/Vitamin ETPGS/ethanol formulation, 24 hr, AVG
  concentration at 24 hr: 4840 ng/mL
male, cynomolgus monkey, in vivo, po, 200 mg/monkey, Plasma Concentration, PG/glycerin/Vitamin ETPGS/ethanol formulation, 48 hr, AVG
  concentration at 48 hr: 2620 ng/mL
male, cynomolgus monkey, in vivo, po, 200 mg/monkey, Plasma Concentration, PG/glycerin/Vitamin ETPGS/ethanol formulation, 72 hr, AVG
  concentration at 72 hr: 296 ng/mL
oral, 50 mg/monkey, PG/glycerin/Vitamin ETPGS/Tween80/Plasdone C15 formulation, 0.25 hr, individual monkey
  Plasma Concentration: 56.3 ng/mL and 67.8 ng/mL
oral, 50 mg/monkey, PG/glycerin/Vitamin ETPGS/Tween80/Plasdone C15 formulation, 0.50 hr, individual monkey
  Plasma Concentration: 409 ng/mL and 2660 ng/mL and 7590 ng/mL
oral, 50 mg/monkey, PG/glycerin/Vitamin ETPGS/Tween80/Plasdone C15 formulation, 1.0 hr, individual monkey
  Plasma Concentration: 1010 ng/mL and 17400 ng/mL and 56100 ng/mL
oral, 50 mg/monkey, PG/glycerin/Vitamin ETPGS/Tween80/Plasdone C15 formulation, 2.0 hr, individual monkey
  Plasma Concentration: 63500 ng/mL and 68500 ng/mL
oral, 50 mg/monkey, PG/glycerin/Vitamin ETPGS/Tween80/Plasdone C15 formulation, 6.0 hr, individual monkey
  Plasma Concentration: 36300 ng/mL and 29000 ng/mL
oral, 50 mg/monkey, PG/glycerin/Vitamin ETPGS/Tween80/Plasdone C15 formulation, 8.0 hr, individual monkey
  Plasma Concentration: 21800 ng/mL and 19000 ng/mL
oral, 50 mg/monkey, PG/glycerin/Vitamin ETPGS/Tween80/Plasdone C15 formulation, 12 hr, individual monkey
  Plasma Concentration: 9150 ng/mL and 6750 ng/mL
oral, 50 mg/monkey, PG/glycerin/Vitamin ETPGS/Tween80/Plasdone C15 formulation, 24 hr, individual monkey
  Plasma Concentration: 1490 ng/mL and 988 ng/mL
oral, 50 mg/monkey, PG/glycerin/Vitamin ETPGS/Tween80/Plasdone C15 formulation, 48 hr, individual monkey
  Plasma Concentration: 635 ng/mL and 174 ng/mL and 200 ng/mL
oral, 50 mg/monkey, PG/glycerin/Vitamin ETPGS/Tween80/Plasdone C15 formulation, 72 hr, individual monkey
  Plasma Concentration: BLOQ
[1]
  Cmax: 63.5 µg/mL and 68.5 µg/mL
  t1/2: 5.3 h and 5.4 h
oral, 50 mg/monkey, PG/glycerin/Vitamin ETPGS/ethanol formulation, 0.25 hr, individual monkey
  Plasma Concentration: BLOQ
oral, 50 mg/monkey, PG/glycerin/Vitamin ETPGS/ethanol formulation, 0.50 hr, individual monkey
  Plasma Concentration: 268 ng/mL and 420 ng/mL and 49.7 ng/mL
oral, 50 mg/monkey, PG/glycerin/Vitamin ETPGS/ethanol formulation, 1.0 hr, individual monkey
  Plasma Concentration: 40200 ng/mL and 23100 ng/mL
oral, 50 mg/monkey, PG/glycerin/Vitamin ETPGS/ethanol formulation, 2.0 hr, individual monkey
  Plasma Concentration: 70800 ng/mL
oral, 50 mg/monkey, PG/glycerin/Vitamin ETPGS/ethanol formulation, 4.0 hr, individual monkey
  Plasma Concentration: 33200 ng/mL and 59800 ng/mL
oral, 50 mg/monkey, PG/glycerin/Vitamin ETPGS/ethanol formulation, 6.0 hr, individual monkey
  Plasma Concentration: 18100 ng/mL and 14000 ng/mL and 37000 ng/mL
oral, 50 mg/monkey, PG/glycerin/Vitamin ETPGS/ethanol formulation, 8.0 hr, individual monkey
  Plasma Concentration: 10600 ng/mL and 10000 ng/mL and 23600 ng/mL
oral, 50 mg/monkey, PG/glycerin/Vitamin ETPGS/ethanol formulation, 12 hr, individual monkey
  Plasma Concentration: 3390 ng/mL and 3450 ng/mL and 9100 ng/mL
oral, 50 mg/monkey, PG/glycerin/Vitamin ETPGS/ethanol formulation, 24 hr, individual monkey
  Plasma Concentration: 922 ng/mL and 1100 ng/mL and 2000 ng/mL
oral, 50 mg/monkey, PG/glycerin/Vitamin ETPGS/ethanol formulation, 48 hr, individual monkey
  Plasma Concentration: 62.6 ng/mL and 97.8 ng/mL and 286 ng/mL
oral, 50 mg/monkey, PG/glycerin/Vitamin ETPGS/ethanol formulation, 72 hr, individual monkey
  Plasma Concentration: BLOQ
[2]
  Cmax: 50.5 µg/mL and 70.8 µg/mL
  Dnzed AUCall: 33692 ng·h/mL/mg/kg
  t1/2: 7.0 h and 7.4 h
oral, 200 mg/monkey, PG/glycerin/Vitamin ETPGS/ethanol formulation, 0.25 hr, individual monkey
  Plasma Concentration: 1040 ng/mL and 89.0 ng/mL
oral, 200 mg/monkey, PG/glycerin/Vitamin ETPGS/ethanol formulation, 0.50 hr, individual monkey
  Plasma Concentration: 10300 ng/mL and 1740 ng/mL
oral, 200 mg/monkey, PG/glycerin/Vitamin ETPGS/ethanol formulation, 1.0 hr, individual monkey
  Plasma Concentration: 88400 ng/mL and 41200 ng/mL
oral, 200 mg/monkey, PG/glycerin/Vitamin ETPGS/ethanol formulation, 2.0 hr, individual monkey
  Plasma Concentration: 232000 ng/mL
oral, 200 mg/monkey, PG/glycerin/Vitamin ETPGS/ethanol formulation, 4.0 hr, individual monkey
  Plasma Concentration: 138000 ng/mL
oral, 200 mg/monkey, PG/glycerin/Vitamin ETPGS/ethanol formulation, 6.0 hr, individual monkey
  Plasma Concentration: 76300 ng/mL
oral, 200 mg/monkey, PG/glycerin/Vitamin ETPGS/ethanol formulation, 12 hr, individual monkey
  Plasma Concentration: 23700 ng/mL
oral, 200 mg/monkey, PG/glycerin/Vitamin ETPGS/ethanol formulation, 24 hr, individual monkey
  Plasma Concentration: 2180 ng/mL and 7500 ng/mL
oral, 200 mg/monkey, PG/glycerin/Vitamin ETPGS/ethanol formulation, 48 hr, individual monkey
  Plasma Concentration: 547 ng/mL and 4700 ng/mL
oral, 200 mg/monkey, PG/glycerin/Vitamin ETPGS/ethanol formulation, 72 hr, individual monkey
  Plasma Concentration: 117 ng/mL and 474 ng/mL
[3]
  AUCall: 1398.863 µg·h/mL
  Cmax: 232 µg/mL
  Dnzed AUCall: 27977 ng·h/mL/mg/kg
  t1/2: 10.1 h
